Test results from patent US12195463B2 (priority 2018, dated 2025).

Experiments:
[1] = target: SERT (Homo sapiens, UniProt P31645); experiment: biochemical; type: binding
[2] = target: D1 (Homo sapiens, UniProt P21728); settings: qualitative statement
[3] = target: D2 (Homo sapiens, UniProt P14416); settings: qualitative statement
Chain of D2 (P14416 1-414 isoform P14416-2): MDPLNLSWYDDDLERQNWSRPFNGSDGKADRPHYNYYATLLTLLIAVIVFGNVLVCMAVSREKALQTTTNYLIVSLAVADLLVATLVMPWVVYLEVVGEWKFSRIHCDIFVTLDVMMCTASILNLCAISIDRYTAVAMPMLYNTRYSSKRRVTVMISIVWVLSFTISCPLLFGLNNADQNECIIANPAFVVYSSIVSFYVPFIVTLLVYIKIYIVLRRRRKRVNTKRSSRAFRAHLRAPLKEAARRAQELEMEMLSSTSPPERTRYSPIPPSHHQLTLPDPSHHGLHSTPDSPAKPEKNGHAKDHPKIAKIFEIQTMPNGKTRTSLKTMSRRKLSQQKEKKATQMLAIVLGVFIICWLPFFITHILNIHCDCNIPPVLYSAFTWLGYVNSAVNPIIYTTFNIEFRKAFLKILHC

Chain of SERT (P31645 whole entry, species assumed): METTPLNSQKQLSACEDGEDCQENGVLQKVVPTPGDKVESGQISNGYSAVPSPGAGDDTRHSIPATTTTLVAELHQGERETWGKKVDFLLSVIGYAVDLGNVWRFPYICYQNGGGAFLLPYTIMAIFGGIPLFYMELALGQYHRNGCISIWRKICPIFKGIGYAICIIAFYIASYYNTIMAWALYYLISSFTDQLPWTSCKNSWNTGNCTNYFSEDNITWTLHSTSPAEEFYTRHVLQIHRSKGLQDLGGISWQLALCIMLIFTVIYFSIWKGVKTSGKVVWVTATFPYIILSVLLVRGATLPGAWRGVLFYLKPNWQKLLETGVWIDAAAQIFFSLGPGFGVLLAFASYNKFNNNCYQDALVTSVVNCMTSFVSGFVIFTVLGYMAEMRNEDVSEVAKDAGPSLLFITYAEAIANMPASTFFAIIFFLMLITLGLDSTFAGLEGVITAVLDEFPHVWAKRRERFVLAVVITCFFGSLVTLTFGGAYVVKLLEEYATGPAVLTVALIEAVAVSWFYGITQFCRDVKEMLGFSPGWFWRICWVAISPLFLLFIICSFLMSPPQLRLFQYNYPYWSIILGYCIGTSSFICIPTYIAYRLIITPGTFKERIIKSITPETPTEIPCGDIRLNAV
Chain of D1 (P21728 whole entry): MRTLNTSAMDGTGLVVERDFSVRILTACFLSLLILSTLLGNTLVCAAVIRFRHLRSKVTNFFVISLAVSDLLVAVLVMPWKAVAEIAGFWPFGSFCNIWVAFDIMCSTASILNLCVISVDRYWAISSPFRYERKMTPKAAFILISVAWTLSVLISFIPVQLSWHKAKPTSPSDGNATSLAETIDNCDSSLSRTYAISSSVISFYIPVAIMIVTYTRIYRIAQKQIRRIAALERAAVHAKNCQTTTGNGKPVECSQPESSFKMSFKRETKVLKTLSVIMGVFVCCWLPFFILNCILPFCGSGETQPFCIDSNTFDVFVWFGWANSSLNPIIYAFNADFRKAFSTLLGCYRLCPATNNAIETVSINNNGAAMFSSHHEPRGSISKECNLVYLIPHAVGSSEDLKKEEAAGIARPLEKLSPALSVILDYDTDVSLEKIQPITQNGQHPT

Ki ([1]; read-out: Ki (nM) or maximum inhibition) [nM] | Compound | D1 receptor binding, in words [2] | D2 affinity, in words [3] | SERT activity, in words ([1]; qualitative statement)
≤ 600 | O=C1CN2c3c(cccc3[C@@H]3CN(CCCOc4ccc(F)cc4)CC[C@@H]32)N1 [Compound A, reference compound] |  |  | 
 | O=C1CN2c3c(cccc3[C@H]3CN(CCCOc4ccc(F)cc4)CC[C@H]32)N1 [Example 1, (6bS,10aR)-8-(3-(4-fluorophenoxy)propyl)-6b,7,8,9,10,10a-hexahydro-1H-pyrido[3′,4′:4,5]pyrrolo[1,2,3-de]quinoxalin-2(3H)-one] | moderately strong D1 receptor binding | weak D2 affinity | no SERT activity
